Structures can show the parent of a compound that is named as a salt. Where two headings read alike, the source gives them in different places.
Assays:
[1] = biological target: T1, SARS-CoV-2 PLpro (nsp3 1564–1878) (Severe acute respiratory syndrome coronavirus 2, UniProt P0DTD1); assay: biochemical; design: FRET-quenched peptide (Pro3) cleavage by PLpro, 10 min pre-incubation, slope over 20 min, normalised to no-compound control; conditions: low concentration screen, read-out: % of control remaining
[2] = biological target: T1, SARS-CoV-2 PLpro (nsp3 1564–1878); assay: biochemical; design: FRET-quenched peptide (Pro3) cleavage by PLpro, 10 min pre-incubation, slope over 20 min, normalised to no-compound control; conditions: high concentration screen, read-out: % of control remaining

With `O=C(O)c1ccc[nH]1` [Pyrrole-2-carboxylic acid] the remaining activity at 1.25 µM ([1]; Well no.=6405) was 93.2% and the remaining activity at 3.75 µM ([2]; Well no.=6405) was 92.4%.

For `CC(=O)C(=O)O` [Pyruvic acid], the remaining activity at 1.25 µM ([1]; Well no.=6683) was 92.9% and the remaining activity at 3.75 µM ([2]; Well no.=6683) was 94.5%.

With `COC1=C[C@@H](C)[C@@H]2C[C@H]3OC(=O)C[C@H]4C(C)=C(OC)C(=O)[C@H]([C@@]2(C)C1=O)[C@@]34C` [Quassin] the remaining activity at 1.25 µM ([1]; Well no.=3775) was 94.2% and the remaining activity at 3.75 µM ([2]; Well no.=3775) was 101%.

`C[C@@H]1C(=O)NC2=Nc3cccc(Cl)c3CN21` [Quazinone] showed a remaining activity at 1.25 µM ([1]; Well no.=1221) of 96.6% and a remaining activity at 3.75 µM ([2]; Well no.=1221) of 95.5%.

In the case of `O=c1c(O)c(-c2ccc(O)c(O)c2)oc2cc(O)c(O)c(O)c12` [Quercetagetin], the remaining activity at 1.25 µM ([1]; Well no.=2589) was 89% and the remaining activity at 3.75 µM ([2]; Well no.=2589) was 92.1%.

`O=c1c(O)c(-c2ccc(O)c(O)c2)oc2cc(O)cc(O)c12` [Quercetin dihydrate] showed a remaining activity at 1.25 µM ([1]; Well no.=1315) of 102% and a remaining activity at 3.75 µM ([2]; Well no.=1315) of 104%.

Work on `O=c1c(O)c(-c2ccc(O)c(O)c2)oc2cc(O)cc(O)c12` [Quercetin] yielded a remaining activity at 1.25 µM ([1]; Well no.=5716) of 91.5% and a remaining activity at 3.75 µM ([2]; Well no.=5716) of 96%.

`C[C@@H]1O[C@@H](Oc2c(-c3ccc(O)c(O)c3)oc3cc(O)cc(O)c3c2=O)[C@H](O)[C@H](O)[C@H]1O` [Quercitrin] gave a remaining activity at 1.25 µM ([1]; Well no.=3112) of 96.4% and a remaining activity at 3.75 µM ([2]; Well no.=3112) of 96.5%.

Work on `OCCOCCN1CCN(C2=Nc3ccccc3Sc3ccccc32)CC1` [Quetiapine (fumarate)] yielded a remaining activity at 1.25 µM ([1]; Well no.=6237) of 98.2% and a remaining activity at 3.75 µM ([2]; Well no.=6237) of 94.3%.

Work on `OCCOCCN1CCN(C2=Nc3ccccc3Sc3ccccc32)CC1` [Quetiapine Fumarate] yielded a remaining activity at 1.25 µM ([1]; Well no.=1684) of 99.2% and a remaining activity at 3.75 µM ([2]; Well no.=1684) of 100%.

Work on `OCCOCCN1CCN(C2=Nc3ccccc3Sc3ccccc32)CC1` [Quetiapine] yielded a remaining activity at 1.25 µM ([1]; Well no.=6616) of 98.1% and a remaining activity at 3.75 µM ([2]; Well no.=6616) of 98.6%.

Work on `CCN(CC)CCCC(C)Nc1c2ccc(Cl)cc2nc2ccc(OC)cc12` (centres unmarked) [Quinacrine dihydrochloride] yielded a remaining activity at 1.25 µM ([1]; Well no.=1173) of 96.3% and a remaining activity at 3.75 µM ([2]; Well no.=1173) of 98.3%.

Compound `CCN(CC)CCCC(C)Nc1c2ccc(Cl)cc2nc2ccc(OC)cc12` (centres unmarked) [Quinacrine] has a remaining activity at 1.25 µM ([1]; Well no.=2187) of 96.6% and a remaining activity at 3.75 µM ([2]; Well no.=2187) of 97.2%.

For `CCOC(=O)[C@H](CCc1ccccc1)N[C@@H](C)C(=O)N1Cc2ccccc2C[C@H]1C(=O)O` [Quinapril (hydrochloride)], the remaining activity at 1.25 µM ([1]; Well no.=7828) was 96.3% and the remaining activity at 3.75 µM ([2]; Well no.=7828) was 95%.

`CCOC(=O)[C@H](CCc1ccccc1)N[C@@H](C)C(=O)N1Cc2ccccc2C[C@H]1C(=O)O` [Quinapril] was tested, and the remaining activity at 1.25 µM ([1]; Well no.=2189) was 98.1% and the remaining activity at 3.75 µM ([2]; Well no.=2189) was 96.3%.

`CCCN1CCC[C@@H]2Cc3nc(N)ncc3C[C@H]21` [Quinelorane dihydrochloride] was tested, and the remaining activity at 1.25 µM ([1]; Well no.=1413) was 95.1% and the remaining activity at 3.75 µM ([2]; Well no.=1413) was 98.2%.

In the case of `C=C[C@H]1CN2CC[C@H]1C[C@@H]2[C@@H](O)c1ccnc2ccc(OC)cc12` [Quinidine sulfate], the remaining activity at 1.25 µM ([1]; Well no.=1363) was 101% and the remaining activity at 3.75 µM ([2]; Well no.=1363) was 105%.

For `C=C[C@H]1CN2CC[C@H]1C[C@H]2[C@H](O)c1ccnc2ccc(OC)cc12` [Quinine sulfate], the remaining activity at 1.25 µM ([1]; Well no.=1459) was 98.4% and the remaining activity at 3.75 µM ([2]; Well no.=1459) was 100%.

`O=C(O)c1cccnc1C(=O)O` [Quinolinic acid] showed a remaining activity at 1.25 µM ([1]; Well no.=1267) of 105%, a remaining activity at 1.25 µM ([1]; Well no.=7265) of 96.1% and a remaining activity at 3.75 µM ([2]; Well no.=1267) of 109%. It also gave a remaining activity at 3.75 µM ([2]; Well no.=7265) of 94.7%.

`c1ccc2nc(N3CCNCC3)ccc2c1` [Quipazine dimaleate] gave a remaining activity at 1.25 µM ([1]; Well no.=1411) of 99.5% and a remaining activity at 3.75 µM ([2]; Well no.=1411) of 101%.

In the case of `N[C@@H](Cn1oc(=O)[nH]c1=O)C(=O)O` [Quisqualic acid], the remaining activity at 1.25 µM ([1]; Well no.=3535) was 101% and the remaining activity at 3.75 µM ([2]; Well no.=3535) was 101%.

In the case of `COc1cc(Nc2ncc(F)c(Nc3ccc4c(n3)NC(=O)C(C)(C)O4)n2)cc(OC)c1OC` [R406 (free base)], the remaining activity at 1.25 µM ([1]; Well no.=4951) was 102% and the remaining activity at 3.75 µM ([2]; Well no.=4951) was 102%.

With `COc1cc(Nc2ncc(F)c(Nc3ccc4c(n3)NC(=O)C(C)(C)O4)n2)cc(OC)c1OC` [R406] the remaining activity at 1.25 µM ([1]; Well no.=4816) was 101% and the remaining activity at 3.75 µM ([2]; Well no.=4816) was 99.1%.

For `COc1ccc(F)c(F)c1C(=O)c1cnc(NC2CCN(S(C)(=O)=O)CC2)nc1N` [R547], the remaining activity at 1.25 µM ([1]; Well no.=4653) was 94.4% and the remaining activity at 3.75 µM ([2]; Well no.=4653) was 93.6%.

Work on `CCCN1CCC[C@H](c2cccc(O)c2)C1` [R(+)-3PPP hydrochloride] yielded a remaining activity at 1.25 µM ([1]; Well no.=1261) of 105% and a remaining activity at 3.75 µM ([2]; Well no.=1261) of 107%.

In the case of `C=CCN1CCc2c(cc(O)c(O)c2Br)[C@@H](c2ccccc2)C1` [R(+)-6-Bromo-APB hydrobromide], the remaining activity at 1.25 µM ([1]; Well no.=277) was 98.1% and the remaining activity at 3.75 µM ([2]; Well no.=277) was 97.4%.

For `CC(C)NC[C@@H](O)COc1ccc(CC(N)=O)cc1` [R(+)-Atenolol], the remaining activity at 1.25 µM ([1]; Well no.=302) was 94.7% and the remaining activity at 3.75 µM ([2]; Well no.=302) was 94.8%.

Compound `C[C@@]1(C2CCCC2)Cc2cc(OCC(=O)O)c(Cl)c(Cl)c2C1=O` [R(+)-IAA-94] has a remaining activity at 1.25 µM ([1]; Well no.=921) of 104% and a remaining activity at 3.75 µM ([2]; Well no.=921) of 105%.

With `CN1CCc2cc(Cl)c(O)cc2[C@@H](c2ccccc2)C1` [R(+)-SCH-23390 hydrochloride] the remaining activity at 1.25 µM ([1]; Well no.=638) was 96.8% and the remaining activity at 3.75 µM ([2]; Well no.=638) was 98%.

Work on `COc1cc2c(c(OC)c1OC)-c1c(cc(OC)c(OC)c1OC)C[C@H](C)[C@H](C)C2` [R(+)-Schisandrin A] yielded a remaining activity at 1.25 µM ([1]; Well no.=3741) of 91.7% and a remaining activity at 3.75 µM ([2]; Well no.=3741) of 93.8%.

Work on `CCN(CC)C(=O)N[C@@H]1C[C@@H]2c3cccc4[nH]cc(c34)C[C@H]2N(C)C1` [R(+)-Terguride] yielded a remaining activity at 1.25 µM ([1]; Well no.=1330) of 103% and a remaining activity at 3.75 µM ([2]; Well no.=1330) of 104%.

`CCCN(CCC)[C@@H]1CCc2c(F)ccc(O)c2C1` [R(+)-UH-301 hydrochloride] gave a remaining activity at 1.25 µM ([1]; Well no.=1382) of 98.7% and a remaining activity at 3.75 µM ([2]; Well no.=1382) of 98.5%.

`CCCN1CCc2cc(O)cc3c2[C@H]1Cc1ccc(O)c(O)c1-3` [R(-)-2,10,11-Trihydroxy-N-propylnoraporphine hydrobromide] gave a remaining activity at 1.25 µM ([1]; Well no.=636) of 103% and a remaining activity at 3.75 µM ([2]; Well no.=636) of 103%.

For `CN1CCc2cc(O)cc3c2[C@H]1Cc1ccc(O)c(O)c1-3` [R(-)-2,10,11-Trihydroxyaporphine hybrobromide], the remaining activity at 1.25 µM ([1]; Well no.=588) was 104% and the remaining activity at 3.75 µM ([2]; Well no.=588) was 100%.

In the case of `COc1ccc(CCNC[C@@H](O)c2ccc(O)cc2)cc1OC` [R(-)-Denopamine], the remaining activity at 1.25 µM ([1]; Well no.=1498) was 103% and the remaining activity at 3.75 µM ([2]; Well no.=1498) was 100%.

Compound `C=CCN1CCc2cccc3c2[C@H]1Cc1ccc(O)c(O)c1-3` [R(-)-N-Allylnorapomorphine hydrobromide] has a remaining activity at 1.25 µM ([1]; Well no.=398) of 98.8% and a remaining activity at 3.75 µM ([2]; Well no.=398) of 97.4%.

From paper PMC8286840, “Identifying SARS-CoV-2 antiviral compounds by screening for small molecule inhibitors of Nsp3 papain-like protease” (Biochemical Journal, 2021)
